Experimental data taken from patent US20050153872A1, “Methods and compositions for the treatment of infection” (priority 2004, published 2005).

Assays:
[1] = tested on: Enterococcus faecalis ATCC 700802; test: In vivo protection of infected mice; set-up: species or system Kungming mice; conditions: mice, i.p. infection 8.0 × 10^6 cfu/ml
Experimental: (§1) The following experiments were performed by Pharmacology Lab, National Sichuan antibiotic industril institute, Chengdu, Sichuan.
(§2) The agents described above were diluted with sterilized water to final concentrations of 10 mg/L, 5 mg/Land 2.5 mg/L.
(§3) Staphylococcus aureus ATCC BAA-42(MRSA) and enterococcus faecalis ATCC 700802 were used as control strains.
(§4) 170 mice (Kungming mice: 18˜22 g, 85 males and 85 females) were randomly divided into four groups and injected with a fatal dosage of staphylococci, enterococcus and E. coli intraperitoneally. […] Mice were inspected every 24 hours for 7-14 days. Dead mice were counted as positive results. The results are depicted in Table 3 and FIGS. 4 and 5A-B.

[2] = tested on: Staphylococcus aureus MRSA 02-18; test: In vivo protection of infected mice; set-up: species or system Kungming mice; conditions: mice, i.p. infection 1.7 × 10^5 cfu/ml
Experimental: as §1, §2, §3, §4

[3] = tested on: Staphylococcus aureus MRSA BAA-42; test: In vivo protection of infected mice; set-up: species or system Kungming mice; conditions: mice, i.p. infection 5.5 × 10^5 cfu/ml
Experimental: as §1, §2, §3, §4

[4] = tested on: Staphylococcus aureus ATCC 29213; test: MIC against challenge strain (Table 3); assay type: cell-based
[5] = tested on: Staphylococcus aureus ATCC 29213; test: In vivo protection of infected mice; set-up: species or system Kungming mice; conditions: i.p. infection 3.6 × 10^5 cfu/ml
Experimental: as §1
(§5) The agents described above were diluted with sterilized water to final concentrations of 10 mg/L, 5 mg/Land 2.5 mg/L. […]
as §4

[6] = tested on: Escherichia coli 02-1-65; test: In vivo protection of infected mice; set-up: species or system Kungming mice; conditions: i.p. infection 3.3 × 10^5 cfu/ml
Experimental: as §1, §5, §4

[7] = tested on: Staphylococcus aureus MRSA BAA-42; test: microbe, parasite or virus in culture; assay type: cell-based; conditions: Staphylococcus aureus MRSA BAA-42
[8] = tested on: Candida albicans ATCC 10231; test: In vitro cell growth inhibition assay (OD595, filaments)
[9] = 1st Time, i.v. treatment after one hour
[10] = 2nd Time (value in parentheses), i.v. treatment

Which results are given for `Cc1nnc(SCC2=C(C(=O)[O-])N3C(=O)[C@@H](NC(=O)Cn4cnnn4)[C@H]3SC2)s1.[Na+]` [Cephazoid, sodium Cephazoid]?
ED50 [1, 9]: >10 mg/kg; ED50 [1, 10]: (12.91) mg/kg; ED50 [2, 9]: 11.82 mg/kg; ED50 [2, 10]: (>10) mg/kg; ED50 [3, 9]: 9.04 mg/kg; ED50 [3, 10]: (8.78) mg/kg; MIC [4]: 0.03 µg/mL; ED50 [5, 9]: 29.03 mg/kg; ED50 [5, 10]: (11.20) mg/kg; ED50 [6, 9]: >30.77 mg/kg; ED50 [6, 10]: (>30.77) mg/kg; MIC [7]: 0.5 µg/mL

B1: Rev. Ph-CA: Candida albicans alpha mating pheromone at N-terminus (S1) of colicin Ia (protein)
chain: GFRLTNFGYFEPGMSDPVARGITNPGAESLGYDSDGHEIMAVASPIYVASNPPRVASPVFHGTPPAWSSFGNKTIWGGNEWVASPDSPTRSDIEKRDKEITAYKNTLSAQQKENENKRTEAGKRLSAAIAAREKDENTLKTLRAGNADAADITRQEFRLLQAELREYGFRTEIAGYDALRLHTESRMLFADADSLRISPREARSLIEQAEKRQKDAQNADKKAADMLAEYERRKGILDTRLSELEKNGGAALAVLDAQQARLLGQQTRNDRAISEARNKLSSVTESLNTARNALTRAEQQLTQQKNTPDGKTIVSPEKFPGRSSTNHSIVVSGDPRFAGTIKITTSAVIDNRANLNYLLSHSGLDYKRNILNDRNPVVTEDVEGDKKIYNAEVALAEWDKLRQRLLDARNKITSAESAVASNSARNNLSARTNEQKHANDALNALLKEKENIRNQLSGINQKIAEEKRKQDELKATKDAINFTTEFLKSVSEKYGAKAEQLAREMAGQAKGKKIRNVEEALKTYEKYRADINKKINAKDRAAIAAALESVKLSDISSNLNRFSRGLGYAGKFTSLADWITEFGKAVARGTENWRPLFVKTETIIAGNAATALVALALVFSILTGSALGIIGYGLLMAVTGALIDESLVEKANKFWGI
modifications: Candida albicans alpha mating pheromone attached to colicin
With B1 as the molecule, how does the “inhibition effect as compared to PMC-CA” value ([8]; 20 μg/ml) read?
The value was “about 30%”.

And the “antifungal effect against Candida albicans in vitro and in vivo” value ([8]; general statement)?
The value was “no effect”.
